Measured values taken from patent US4738975A, “Pyridine derivatives, and use as anti-ulcer agents” (Takeda Chemical Industries, Ltd., priority 1985, dated 1988).

Assays:
[1] = tested on: gastric mucosa; assay: gastric mucosal injury induced by ethanol (action of protecting gastric mucosa); assay type: in vivo, Male Sprague-Dawley rats; conditions: Rattus norvegicus, po; 6 rats per group; doses 3, 10 and 30 mg/kg; 30 min before 1 ml of 100% ethanol; read-out: Action of protecting gastric mucosa ID50
Method: As a method of determining the ability to protect gastric mucosa, gastric mocosal injury induced by ethanol [Robert A., Gastroenterology 77, 761 (1979)] is often used. This method was applied to evaluation of the compounds of this invention. Male Sprague-Dawley rats 7-weeks old were fasted for 24 hours. These animals were administered test compounds into the stomach by using a gastric tube. After 30 minutes, 1 ml of 100% ethanol was administered orally. The animals were killed by carbon dioxide gas 60 minutes after ethanol administration. The stomach was removed together with the lower part of esophagus and the duodenum. The esophagus was clipped, 10 ml of 1% formalin solution was instilled into the stomach from the duodenum, and then the duodenum was clipped. The whole stomach was immersed in 1% formalin solution. About 15 minutes later, the stomachs were opened along the greater curvature. Length of the lesions which occurred in the gastric corpus mucosa was measured under a dissecting microscope with a square-grid eye piece (×10). The sum total length of the individual lesions in each animal was measured, and the average value per group was calculated. Based on the difference between the average value of each group and that of the control group, the inhibition rate was determined. The test compound was suspended in a 5% gum arabic solution, and administered in a volume of 2 ml/kg. | administered in a dose of 3, 10 and 30 mg/kg to determine ID50.

[2] = oral toxicity in mice; assay type: in vivo; conditions: oral administration, 500 mg/kg

| SMILES | ED50 [1] | fatal effect [2] |
| --- | --- | --- |
| COc1ccnc(C[S+]([O-])c2nc3cc(C(F)(F)F)ccc3[nH]2)c1C (stereo not shown) [5-CF3, CH3, CH3, H, reference compound] | 24 mg/kg |  |
| COc1ccc2[nH]c([S+]([O-])Cc3ncc(C)c(OC)c3C)nc2c1 (stereo not shown) [5-OCH3, CH3, CH3, CH3, reference compound] | 22 mg/kg |  |
| COc1ccnc(C[S+]([O-])c2nc3ccccc3[nH]2)c1OC (stereo not shown) [Example 6, 2-[(3,4-dimethoxypyrid-2-yl)methylsulfinyl]benzimidazole] | 3.2 mg/kg | no fatal effect |
| COc1ccnc(C[S+]([O-])c2nc3ccc(C(F)(F)F)cc3[nH]2)c1OC (stereo not shown) [Example 9, 2-[(3,4-dimethoxypyrid-2-yl)methylsulfinyl]-5-trifluoromethylbenzimidazole] | 3 mg/kg |  |
| COc1c(OCC(F)(F)F)ccnc1C[S+]([O-])c1nc2ccccc2[nH]1 (stereo not shown) [Example 18, 2-[[3-methoxy-4-(2,2,2-trifluoroethoxy)pyrid-2-yl]methylsulfinyl]benzimidazole] | 6.2 mg/kg | no fatal effect |
